MIC data for three compounds are collected here from US4755610A, “Hapalindoles” (priority 1986, dated 1988).

What all share (format): cell-based
The test system of assay [1] is Staphylococcus aureus X1.1. The experiment in a line: In vitro antibacterial activity, standard agar-dilution assay. The conditions noted are these: Staphylococcus aureus X1.1; agar dilution; read-out: MIC.
The test system of assay [2] is Staphylococcus aureus V41. The assay is described as above. Particulars: Staphylococcus aureus V41; agar dilution; read-out: MIC. (In general: In agar dilution, organisms are placed on agar that contains the substance at set levels.)
Assay [3] relates to Staphylococcus aureus X400. The experiment in a line: microbe, parasite or virus in culture.
In assay [4] the test system is Staphylococcus aureus S13E. The experiment in a line: microbe, parasite or virus in culture.
Assay [5] has as its system Staphylococcus epidermidis EPI1. The experiment in a line: In vitro antibacterial activity, standard agar-dilution assay. Particulars: Staphylococcus epidermidis EPI1; agar dilution; read-out: MIC.
The test system of assay [6] is Staphylococcus epidermidis 222. The description is as above. The conditions noted are these: Staphylococcus epidermidis 222; agar dilution; read-out: MIC.
The test system of assay [7] is Streptococcus pyogenes C203. The description is as above. The conditions noted are these: Streptococcus pyogenes C203; agar dilution; read-out: MIC.
The subject of assay [8] is Streptococcus pneumoniae Park 1. The description is as above. The conditions noted are these: PARK1; Streptococcus pneumoniae Park 1; agar dilution; read-out: MIC.
In assay [9] the test system is Streptococcus faecium ATCC 9790. The description is as above. The conditions noted are these: Enterococcus faecium, ATCC9790; Streptococcus faecium ATCC 9790; agar dilution; read-out: MIC.
For assay [10], the system named is Streptococcus sp group D 2041. The description is as above. The conditions noted are these: GROUPD2041; Streptococcus sp group D 2041; agar dilution; read-out: MIC.
In assay [11] the test system is Haemophilus influenzae C.L. The description is as above. The conditions noted are these: Haemophilus influenzae C.L.; agar dilution; read-out: MIC.
In assay [12] the test system is Haemophilus influenzae 76. The description is as above. Particulars: Haemophilus influenzae 76; agar dilution; read-out: MIC.
Assay [13] relates to Escherichia coli N10. The description is as above. The conditions noted are these: Escherichia coli N10; agar dilution; read-out: MIC.
The test system of assay [14] is Escherichia coli EC14. The description is as above. The conditions noted are these: Escherichia coli EC14; agar dilution; read-out: MIC.
Assay [15] deals with Escherichia coli TEM. The description is as above.
For assay [16], the system named is Klebsiella pneumoniae X26. The description is as above. Particulars: Klebsiella pneumoniae X26; agar dilution; read-out: MIC.
Assay [17] deals with Klebsiella pneumoniae X68. The description is as above. The conditions noted are these: Klebsiella pneumoniae X68; agar dilution; read-out: MIC.
Assay [18] has as its system Klebsiella pneumoniae KAE. The assay is described as above. Particulars: Klebsiella pneumoniae KAE; agar dilution; read-out: MIC.
In assay [19] the test system is Salmonella sp. X514. Described as above. The conditions noted are these: Salmonella sp. X514; agar dilution; read-out: MIC.
The test system of assay [20] is Shigella sonnei N9. The assay is described as above. Particulars: Shigella sonnei N9; agar dilution; read-out: MIC.
Assay [21] relates to Proteus morganii PR15. The assay is described as above. The conditions noted are these: Morganella morganii; Proteus morganii PR15; agar dilution; read-out: MIC.
The test system of assay [22] is Acinetobacter calcoaceticus AC12. The assay is described as above. Particulars: Acinetobacter calcoaceticus AC12; agar dilution; read-out: MIC.
For assay [23], the system named is Candida albicans. The experiment in a line: In vitro antifungal activity, standard disc-plate assay. Particulars: disc-plate assay, read-out: MIC.
In assay [24] the test system is Trichophyton mentagrophytes. The description is as above. The conditions noted are these: disc-plate assay, read-out: MIC.

Converted amounts (≈) assume the structure as drawn. A value given as a limit tells only on which side of the number the result lay.

`[C-]#[N+][C@@H]1[C@H]2c3c[nH]c4cccc(c34)C(C)(C)[C@H]2C[C@@H](Cl)[C@]1(C)C=C` [Compound 1, hapalindole A]: the MIC in assay [1] turned out to be 4 µg/mL (≈ 11.8 µM); in assay [2], 4 µg/mL (≈ 11.8 µM); in assay [3], 4 µg/mL (≈ 11.8 µM); in assay [4], 4 µg/mL (≈ 11.8 µM); in assay [5] it was 2 µg/mL (≈ 5.9 µM); in assay [6] it was 0.06 µg/mL (≈ 0.177 µM). Further, the MIC worked out at 2 µg/mL (≈ 5.9 µM) in assay [7]; 16 µg/mL (≈ 47.2 µM) in assay [8]; 16 µg/mL (≈ 47.2 µM) in assay [9]; 16 µg/mL (≈ 47.2 µM) in [10]; 4 µg/mL (≈ 11.8 µM) in [11]; 4 µg/mL (≈ 11.8 µM) in assay [12]. Also, the MIC was 4 µg/mL (≈ 11.8 µM) in assay [13]; 8 µg/mL (≈ 23.6 µM) in assay [14]; 4 µg/mL (≈ 11.8 µM) in assay [15]; 4 µg/mL (≈ 11.8 µM) in assay [16]; more than 64 µg/mL in assay [17]; more than 64 µg/mL in assay [18]. Further, the MIC in assay [19] was 8 µg/mL (≈ 23.6 µM); in assay [20] it was 8 µg/mL (≈ 23.6 µM); in [21], 32 µg/mL (≈ 94.4 µM); in assay [22] it was 2 µg/mL (≈ 5.9 µM); in assay [23] it was 1.25 µg/mL (≈ 3.69 µM); in assay [24], 1.25 µg/mL (≈ 3.69 µM).
With `C=C[C@@]1(C)[C@H](Cl)C[C@H]2[C@H](c3c[nH]c4cccc(c34)C2(C)C)[C@H]1N=C=S` [Compound 2, Hapalindole B], the MIC in [1], in assay [2], in [3], in assay [4], in assay [5] and in assay [6] was 2 µg/mL (≈ 5.39 µM) in each case. Further, the MIC is 64 µg/mL (≈ 173 µM) in [7]; 64 µg/mL (≈ 173 µM) in assay [8]; 4 µg/mL (≈ 10.8 µM) in assay [9]; 8 µg/mL (≈ 21.6 µM) in assay [10]; more than 64 µg/mL in assay [11]; more than 64 µg/mL in assay [12]. The MIC in assay [13], in assay [14], in assay [15], in assay [16], in [17] and in [18] was more than 64 µg/mL in each case. For the same compound, the MIC in [19] was more than 64 µg/mL; in assay [20] it was more than 64 µg/mL; in [21] it was more than 64 µg/mL; in assay [22], more than 64 µg/mL; in assay [23], more than 20 µg/mL; in assay [24], more than 20 µg/mL.
Take `[C-]#[N+][C@@H]1[C@H](c2c[nH]c3ccccc23)[C@@H](C(=C)C)CC[C@]1(C)C=C` [Compound 3, Hapalindole C]: the MIC worked out at 16 µg/mL (≈ 52.6 µM) in assay [1]; 16 µg/mL (≈ 52.6 µM) in [2]; 16 µg/mL (≈ 52.6 µM) in assay [3]; 8 µg/mL (≈ 26.3 µM) in [4]; 8 µg/mL (≈ 26.3 µM) in [5]; 16 µg/mL (≈ 52.6 µM) in [6]. In addition, the MIC is more than 64 µg/mL in assay [7]; more than 64 µg/mL in assay [8]; more than 64 µg/mL in [9]; more than 64 µg/mL in assay [10]; 16 µg/mL (≈ 52.6 µM) in [11]; 16 µg/mL (≈ 52.6 µM) in [12]. For the same compound, the MIC in assay [13] is more than 64 µg/mL; in assay [14] it was more than 64 µg/mL; in assay [15] it was 64 µg/mL (≈ 210 µM); in assay [16], more than 64 µg/mL; in assay [17], more than 64 µg/mL; in [18] it was more than 64 µg/mL. In addition, the MIC was more than 64 µg/mL in assay [19]; more than 64 µg/mL in assay [20]; more than 64 µg/mL in assay [21]; 2 µg/mL (≈ 6.57 µM) in assay [22]; 0.625 µg/mL (≈ 2.05 µM) in assay [23]; 0.625 µg/mL (≈ 2.05 µM) in [24].
